Measurements reported in ChEMBL document CHEMBL5576094, “A Diterpenoid of the Medicinal Plant Andrographis paniculata Targets Cutaneous TRPV3 Channel and Relieves Itch” (J Nat Prod, 2024).
Values belong to the compound of their own block, whether it stands above or below them. Activity calls are given as the source filed them. No cut-off for these calls is given here.

How the values were obtained:
[1] = molecular target: T1, Transient receptor potential cation channel subfamily V member 3 (Homo sapiens) (UniProt Q8NET8); assay: Inhibition of human TRPV3 expressed in CHO cells assessed as reduction in 2-APB-induced intracellular calcium flux at 20 uM measured for 60 mins by Fluo-4-AM dye based fluorescence assay; type: cell-based
T1 sequence (whole entry): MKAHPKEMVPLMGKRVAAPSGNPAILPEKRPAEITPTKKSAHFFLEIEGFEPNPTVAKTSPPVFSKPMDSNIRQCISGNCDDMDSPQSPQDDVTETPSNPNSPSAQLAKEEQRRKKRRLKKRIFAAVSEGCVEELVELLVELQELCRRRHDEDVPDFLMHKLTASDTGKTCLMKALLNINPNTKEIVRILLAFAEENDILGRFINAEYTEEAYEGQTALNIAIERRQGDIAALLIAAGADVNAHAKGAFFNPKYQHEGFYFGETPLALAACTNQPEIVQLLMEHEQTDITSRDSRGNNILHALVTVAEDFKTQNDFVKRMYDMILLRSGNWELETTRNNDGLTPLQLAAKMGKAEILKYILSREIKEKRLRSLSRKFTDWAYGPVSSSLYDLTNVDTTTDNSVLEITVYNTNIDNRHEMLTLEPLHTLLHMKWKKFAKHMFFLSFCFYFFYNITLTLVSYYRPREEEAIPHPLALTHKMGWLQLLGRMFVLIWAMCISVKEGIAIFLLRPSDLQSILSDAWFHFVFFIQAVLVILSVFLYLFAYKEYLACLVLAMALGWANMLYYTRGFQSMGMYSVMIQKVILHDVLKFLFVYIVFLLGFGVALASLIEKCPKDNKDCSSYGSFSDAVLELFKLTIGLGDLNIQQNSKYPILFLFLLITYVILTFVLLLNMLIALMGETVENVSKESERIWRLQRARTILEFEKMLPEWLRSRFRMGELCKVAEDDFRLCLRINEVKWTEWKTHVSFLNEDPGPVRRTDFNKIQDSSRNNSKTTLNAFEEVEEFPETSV

[2] = molecular target: T1, Transient receptor potential cation channel subfamily V member 3 (Homo sapiens); assay: Inhibition of human TRPV3 expressed in CHO cells assessed as reduction in 2-APB induced channel current at 10 uM at -80 mV by whole-cell patch clamp electrophysiology; type: cell-based
[3] = molecular target: T1, Transient receptor potential cation channel subfamily V member 3 (Homo sapiens); assay: Inhibition of human TRPV3 expressed in CHO cells assessed as reduction in 2-APB induced channel current at 10 uM at +80 mV by whole-cell patch clamp electrophysiology; type: cell-based
[4] = molecular target: T1, Transient receptor potential cation channel subfamily V member 3 (Homo sapiens); assay: Irreversible inhibition of human TRPV3 expressed in CHO cells assessed as reduction in 2-APB induced channel current at 10 uM at -80 mV incubated prior to compound washout followed by 2-APB addition by whole-cell patch clamp electrophysiology; type: cell-based
[5] = molecular target: T1, Transient receptor potential cation channel subfamily V member 3 (Homo sapiens); assay: Irreversible inhibition of human TRPV3 expressed in CHO cells assessed as reduction in 2-APB induced channel current at 10 uM at +80 mV incubated prior to compound washout followed by 2-APB addition by whole-cell patch clamp electrophysiology; type: cell-based
[6] = molecular target: T2, Transient receptor potential cation channel subfamily V member 3 (Homo sapiens, UniProt Q8NET8); assay: Inhibition of human TRPV3 expressed in CHO cells assessed as reduction in 2-APB induced channel current at -80 mV by whole-cell patch clamp electrophysiology; type: cell-based
T2 sequence (Q8NET8 whole entry): T1 sequence (whole entry)

[7] = molecular target: T2, Transient receptor potential cation channel subfamily V member 3; assay: Inhibition of human TRPV3 expressed in CHO cells assessed as reduction in 2-APB induced channel current at +80 mV by whole-cell patch clamp electrophysiology; type: cell-based
[8] = molecular target: T1, Transient receptor potential cation channel subfamily V member 3 (Homo sapiens); assay: Inhibition of human TRPV3 expressed in CHO cells assessed as reduction in 2-APB induced maximal channel current at voltage ramps from -80 to +80 mV by whole-cell patch clamp electrophysiology relative to control; type: cell-based
[9] = molecular target: Transient receptor potential cation channel subfamily V member 1 (Rattus norvegicus) (UniProt O35433); assay: Inhibition of rat TRPV1 expressed in CHO cells assessed as reduction in capsaicin-induced intracellular calcium flux at 20 uM measured for 60 mins by Fluo-4-AM dye based fluorescence assay; type: cell-based
[10] = molecular target: Transient receptor potential cation channel subfamily A member 1 (Rattus norvegicus) (UniProt Q6RI86); assay: Inhibition of rat TRPA1 expressed in CHO cells assessed as reduction in AITC-induced intracellular calcium flux at 20 uM measured for 60 mins by Fluo-4-AM dye based fluorescence assay; type: cell-based
[11] = molecular target: Transient receptor potential cation channel subfamily V member 4 (Homo sapiens) (UniProt Q9HBA0); assay: Inhibition of human TRPV4 expressed in CHO cells assessed as reduction in GSK1016790A-induced intracellular calcium flux at 20 uM measured for 60 mins by Fluo-4-AM dye based fluorescence assay; type: cell-based
[12] = molecular target: T3, Acid-sensing ion channel 1 (Rattus norvegicus) (UniProt P55926); assay: Inhibition of rat ASIC1a expressed in Xenopus Oocytes at 20 uM at holding potential of -50 mV by whole-cell electrophysiology; type: cell-based; settings: Oocyte
T3 sequence (whole entry): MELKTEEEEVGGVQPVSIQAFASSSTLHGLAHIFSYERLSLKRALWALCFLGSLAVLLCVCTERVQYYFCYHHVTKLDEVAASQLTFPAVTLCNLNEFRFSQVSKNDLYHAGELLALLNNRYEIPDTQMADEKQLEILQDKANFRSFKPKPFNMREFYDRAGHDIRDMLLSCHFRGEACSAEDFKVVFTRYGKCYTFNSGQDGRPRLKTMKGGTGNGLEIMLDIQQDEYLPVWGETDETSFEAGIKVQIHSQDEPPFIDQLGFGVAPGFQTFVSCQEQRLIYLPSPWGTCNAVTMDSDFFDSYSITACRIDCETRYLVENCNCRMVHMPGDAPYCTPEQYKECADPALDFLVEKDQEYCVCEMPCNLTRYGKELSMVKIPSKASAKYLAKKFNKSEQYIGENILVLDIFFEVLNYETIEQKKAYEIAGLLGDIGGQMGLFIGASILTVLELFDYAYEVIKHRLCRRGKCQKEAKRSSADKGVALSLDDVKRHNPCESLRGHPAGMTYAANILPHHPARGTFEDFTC

[13] = molecular target: T4, Acid-sensing ion channel 3 (Homo sapiens) (UniProt Q9UHC3); assay: Inhibition of human ASIC3 expressed in Xenopus Oocytes at 20 uM at holding potential of -50 mV by whole-cell electrophysiology; type: cell-based; settings: Oocyte
T4 sequence (whole entry): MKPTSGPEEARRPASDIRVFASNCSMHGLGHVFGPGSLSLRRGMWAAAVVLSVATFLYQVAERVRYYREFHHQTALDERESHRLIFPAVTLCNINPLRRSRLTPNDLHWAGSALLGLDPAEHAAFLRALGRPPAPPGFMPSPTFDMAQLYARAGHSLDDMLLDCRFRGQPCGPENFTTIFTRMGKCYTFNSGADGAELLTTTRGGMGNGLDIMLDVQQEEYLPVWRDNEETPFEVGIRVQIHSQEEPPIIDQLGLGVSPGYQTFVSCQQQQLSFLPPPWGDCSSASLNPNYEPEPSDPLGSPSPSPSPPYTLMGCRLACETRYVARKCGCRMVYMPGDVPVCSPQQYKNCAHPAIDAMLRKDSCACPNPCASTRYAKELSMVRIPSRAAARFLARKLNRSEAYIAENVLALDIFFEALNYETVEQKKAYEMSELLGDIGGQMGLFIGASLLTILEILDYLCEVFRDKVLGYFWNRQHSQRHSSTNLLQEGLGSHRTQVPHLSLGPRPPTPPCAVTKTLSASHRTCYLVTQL

[14] = molecular target: T2, Transient receptor potential cation channel subfamily V member 3; assay: Inhibition of TRPV3 in human HaCaT cells assessed as reduction in carvacrol-induced calcium influx measured for 60 mins by Fluo-4-AM dye based fluorescence assay; type: cell-based
[15] = molecular target: T1, Transient receptor potential cation channel subfamily V member 3 (Homo sapiens); assay: Inhibition of TRPV3 in human HaCaT cells assessed as reduction in carvacrol-induced calcium influx measured for 60 mins by Fluo-4-AM dye based fluorescence assay relative to control; type: cell-based
[16] = molecular target: T1, Transient receptor potential cation channel subfamily V member 3 (Homo sapiens); assay: Inhibition of human TRPV3 expressed in CHO cells assessed as reduction in 2-APB induced channel current at +80 mV by whole-cell patch clamp electrophysiology relative to control; type: cell-based
[17] = molecular target: T1, Transient receptor potential cation channel subfamily V member 3 (Homo sapiens); assay: Inhibition of human TRPV3 expressed in CHO cells assessed as reduction in 2-APB induced channel current at -80 mV by whole-cell patch clamp electrophysiology relative to control; type: cell-based
HaCaT = assay: Cytotoxicity against human HaCaT cells assessed as reduction in cell viability measured after 24 hrs by MTT assay; type: toxicity, cell-based
[18] = Induction of pruritic reaction in ICR mouse assessed as number of scratching bouts at 30 uM, ID measured within 30 mins (reference value: 6 +/- 1 No_Unit); type: toxicity; settings: other, 0.5 h
[19] = Induction of pruritic reaction in ICR mouse assessed as number of scratching bouts at 100 uM, ID measured within 30 mins (reference value: 6 +/- 1 No_Unit); type: toxicity; settings: other, 0.5 h
Mus musculus [20] = species on record: Mus musculus; assay: Antipruritic activity in carvacrol-induced scratching ICR mouse model assessed as number of scratching bouts at 30 uM, ID pretreated for 30 mins followed by carvacrol stimulation and measured for 30 mins (reference value: 174 +/- 7); type: functional; settings: time 60 min, 1 h
Mus musculus [21] = species on record: Mus musculus; assay: Antipruritic activity in carvacrol-induced scratching ICR mouse model assessed as number of scratching bouts at 100 uM, ID pretreated for 30 mins followed by carvacrol stimulation and measured for 30 mins (reference value: 174 +/- 7); type: functional; settings: time 60 min, 1 h
Mus musculus [22] = species on record: Mus musculus; assay: Antipruritic activity in histamine-induced scratching ICR mouse model assessed as number of scratching bouts at 0.3 uM, ID pretreated for 30 mins followed by histamine stimulation and measured for 30 mins (reference value: 123 +/- 6); type: functional; settings: time 60 min, 1 h
Mus musculus [23] = species on record: Mus musculus; assay: Antipruritic activity in histamine-induced scratching ICR mouse model assessed as number of scratching bouts at 3 uM, ID pretreated for 30 mins followed by histamine stimulation and measured for 30 mins (reference value: 123 +/- 6); type: functional; settings: time 60 min, 1 h
Mus musculus [24] = species on record: Mus musculus; assay: Antipruritic activity in histamine-induced scratching ICR mouse model assessed as number of scratching bouts at 30 uM, ID pretreated for 30 mins followed by histamine stimulation and measured for 30 mins (reference value: 123 +/- 6); type: functional; settings: time 60 min, 1 h
Mus musculus [25] = species on record: Mus musculus; assay: Antipruritic activity in histamine-induced scratching ICR mouse model assessed as inhibition of neck scratching behavior at 3 uM, ID pretreated for 30 mins followed by histamine stimulation and measured for 10 mins relative to control; type: functional; settings: 40 min
Mus musculus [26] = species on record: Mus musculus; assay: Antipruritic activity in histamine-induced scratching ICR mouse model assessed as inhibition of neck scratching behavior at 3 uM, ID pretreated for 30 mins followed by histamine stimulation and measured after 10 to 30 mins; type: functional, organism-based; settings: time 40-60 min
Mus musculus [27] = species on record: Mus musculus; assay: Antipruritic activity in carvacrol-induced scratching ICR mouse model assessed as inhibition of neck scratching behavior at 100 uM, ID pretreated for 30 mins followed by carvacrol stimulation and measured for 30 mins relative to control; type: functional; settings: 1 h, time 60 min
Mus musculus [28] = assay: Antipruritic activity in histamine-induced scratching ICR mouse model assessed as number of scratching bouts at 10 mg/kg, po administered via gavage pretreated for 30 mins followed by histamine stimulation and measured for 30 mins (reference value: 123 +/- 6); type: functional; settings: time 60 min, 1 h
Mus musculus [29] = assay: Antipruritic activity in histamine-induced scratching ICR mouse model assessed as inhibition of neck scratching behavior at 10 mg/kg, po administered via gavage pretreated for 30 mins followed by histamine stimulation and measured for 30 mins relative to control; type: functional; settings: 1 h, time 60 min

Chain of Transient receptor potential cation channel subfamily A member 1 (Rattus norvegicus) (Q6RI86 whole entry): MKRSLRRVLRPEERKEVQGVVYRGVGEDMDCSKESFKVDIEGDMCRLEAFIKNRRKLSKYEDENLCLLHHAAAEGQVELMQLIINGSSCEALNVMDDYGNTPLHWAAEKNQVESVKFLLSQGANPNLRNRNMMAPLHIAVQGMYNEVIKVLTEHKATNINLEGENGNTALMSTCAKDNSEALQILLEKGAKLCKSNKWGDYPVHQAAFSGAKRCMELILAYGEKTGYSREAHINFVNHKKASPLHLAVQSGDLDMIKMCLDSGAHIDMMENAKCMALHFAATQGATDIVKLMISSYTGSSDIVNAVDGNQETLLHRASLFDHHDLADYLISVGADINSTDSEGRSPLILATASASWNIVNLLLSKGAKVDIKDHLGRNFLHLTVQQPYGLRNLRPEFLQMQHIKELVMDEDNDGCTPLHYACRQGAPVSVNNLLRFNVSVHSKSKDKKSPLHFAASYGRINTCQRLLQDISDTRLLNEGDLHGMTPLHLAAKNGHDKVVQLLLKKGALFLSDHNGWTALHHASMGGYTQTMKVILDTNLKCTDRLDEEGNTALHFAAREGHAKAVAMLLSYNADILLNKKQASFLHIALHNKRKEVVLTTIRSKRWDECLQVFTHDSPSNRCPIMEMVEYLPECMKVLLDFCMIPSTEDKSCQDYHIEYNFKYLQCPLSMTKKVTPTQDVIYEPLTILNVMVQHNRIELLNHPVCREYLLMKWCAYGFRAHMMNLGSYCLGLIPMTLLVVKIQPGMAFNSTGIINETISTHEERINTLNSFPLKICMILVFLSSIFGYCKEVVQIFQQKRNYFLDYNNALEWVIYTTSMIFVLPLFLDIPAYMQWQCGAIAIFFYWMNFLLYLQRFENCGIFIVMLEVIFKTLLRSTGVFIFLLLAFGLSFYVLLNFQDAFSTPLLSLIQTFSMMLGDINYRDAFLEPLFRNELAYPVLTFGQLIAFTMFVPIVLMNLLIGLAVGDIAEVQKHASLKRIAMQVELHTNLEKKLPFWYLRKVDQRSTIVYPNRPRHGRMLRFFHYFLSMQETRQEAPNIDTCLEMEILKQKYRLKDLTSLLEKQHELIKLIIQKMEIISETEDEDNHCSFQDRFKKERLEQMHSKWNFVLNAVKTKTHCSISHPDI
Chain of Transient receptor potential cation channel subfamily V member 1 (Rattus norvegicus) (O35433 whole entry): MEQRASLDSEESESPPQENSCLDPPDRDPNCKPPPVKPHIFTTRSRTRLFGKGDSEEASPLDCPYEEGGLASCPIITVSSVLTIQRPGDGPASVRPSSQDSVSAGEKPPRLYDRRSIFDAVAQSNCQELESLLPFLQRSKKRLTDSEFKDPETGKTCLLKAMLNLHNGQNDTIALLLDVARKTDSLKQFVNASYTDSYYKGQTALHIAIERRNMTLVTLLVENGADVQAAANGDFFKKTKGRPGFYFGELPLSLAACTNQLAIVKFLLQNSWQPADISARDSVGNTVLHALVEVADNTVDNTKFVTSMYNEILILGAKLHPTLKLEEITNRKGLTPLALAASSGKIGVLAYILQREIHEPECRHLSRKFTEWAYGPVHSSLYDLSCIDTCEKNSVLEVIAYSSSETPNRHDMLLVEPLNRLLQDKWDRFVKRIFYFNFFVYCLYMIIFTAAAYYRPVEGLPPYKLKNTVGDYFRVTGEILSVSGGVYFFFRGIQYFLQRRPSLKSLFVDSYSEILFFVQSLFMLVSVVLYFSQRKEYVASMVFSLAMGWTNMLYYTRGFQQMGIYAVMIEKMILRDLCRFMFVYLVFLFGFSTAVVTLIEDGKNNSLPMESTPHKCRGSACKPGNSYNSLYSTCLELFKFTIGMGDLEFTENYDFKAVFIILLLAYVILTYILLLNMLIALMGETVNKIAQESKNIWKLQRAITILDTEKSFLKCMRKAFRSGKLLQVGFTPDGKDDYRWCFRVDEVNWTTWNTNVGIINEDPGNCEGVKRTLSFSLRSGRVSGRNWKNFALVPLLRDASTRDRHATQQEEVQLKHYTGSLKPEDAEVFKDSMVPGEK
Chain of Transient receptor potential cation channel subfamily V member 4 (Homo sapiens) (Q9HBA0 whole entry): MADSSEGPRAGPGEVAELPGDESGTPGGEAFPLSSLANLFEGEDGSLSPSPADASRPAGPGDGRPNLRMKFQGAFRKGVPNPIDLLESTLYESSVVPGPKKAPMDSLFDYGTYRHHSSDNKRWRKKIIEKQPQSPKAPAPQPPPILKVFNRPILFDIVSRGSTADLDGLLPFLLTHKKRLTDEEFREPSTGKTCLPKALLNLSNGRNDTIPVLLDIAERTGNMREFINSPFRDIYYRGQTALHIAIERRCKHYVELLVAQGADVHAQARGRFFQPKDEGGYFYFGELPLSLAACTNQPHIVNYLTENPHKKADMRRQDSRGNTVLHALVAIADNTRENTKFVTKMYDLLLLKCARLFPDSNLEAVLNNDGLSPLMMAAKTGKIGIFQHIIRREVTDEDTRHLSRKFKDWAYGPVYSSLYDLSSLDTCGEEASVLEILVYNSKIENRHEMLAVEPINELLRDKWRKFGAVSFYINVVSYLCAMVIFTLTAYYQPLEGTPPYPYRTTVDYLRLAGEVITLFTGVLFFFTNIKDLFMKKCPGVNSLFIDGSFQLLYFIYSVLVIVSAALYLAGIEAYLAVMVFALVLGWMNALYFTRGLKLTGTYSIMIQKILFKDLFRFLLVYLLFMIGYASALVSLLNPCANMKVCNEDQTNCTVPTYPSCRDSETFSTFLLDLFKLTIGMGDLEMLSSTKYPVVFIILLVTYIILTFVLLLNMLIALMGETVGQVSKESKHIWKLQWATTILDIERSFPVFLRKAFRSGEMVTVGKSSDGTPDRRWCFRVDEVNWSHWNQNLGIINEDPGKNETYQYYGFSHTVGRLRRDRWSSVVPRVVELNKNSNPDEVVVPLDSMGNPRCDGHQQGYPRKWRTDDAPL

inhibition [1]: Active
inhibition [2]: Active
inhibition [3]: Active
inhibition [4]: Active
inhibition [5]: Active
IC50 [6]: 560 nM
IC50 [7]: 800 nM
fold change (FC) [8]: 2
inhibition [9]: inactive
inhibition [10]: inactive
inhibition [11]: inactive
inhibition [12]: inactive
inhibition [13]: inactive
IC50 [14]: 850 nM
Imax [15]: 43%
Imax [16]: 49%
Imax [17]: 50%
SMILES: C=C1CC[C@@H]2[C@](C)(CO)[C@H](O)CC[C@@]2(C)[C@@H]1/C=C/C1=CCOC1=O
Activity (HaCaT): Non-Toxic
Activity [18]: 8.1
Activity [19]: 10.6
Activity (Mus musculus [20]): 178
Activity (Mus musculus [21]): 129
Activity (Mus musculus [22]): 95
Activity (Mus musculus [23]): 57
Activity (Mus musculus [24]): 59
inhibition in vivo at 3 µM (Mus musculus [25]): ~40%
inhibition (Mus musculus [26]): Active
inhibition in vivo at 100 µM (Mus musculus [27]): ~26%

SMILES: CCOC(=O)N1CCC(=C2c3ccc(Cl)cc3CCc3cccnc32)CC1 [LORATADINE]
Activity (Mus musculus [28]): 72
inhibition in vivo at 10 mg/kg (Mus musculus [29]): ~40%
